Entries after “also recorded” stand apart in the source; their conditions may differ.
How the values were obtained:
[1] = target: HIF-1α PAS-B (Homo sapiens, UniProt Q16665); assay: Isothermal titration calorimetry (ITC) on HIF-1α PAS-B; type: binding; details: same conditions as for HIF-2α PAS-B
Description: (§1) Ensuing allosteric conformational changes propagate to the surface of the domain, weakening interactions with the ARNT PAS-B domain and disrupting heterodimerization of the full length HIF-2 transcription factor.

[2] = tested on: VEGF; assay: HIF-2 target gene (VEGF) expression in 786-0 cells, RT-PCR; type: cell-based, human; details: 18 hr
Description: (§2) 786-0 cells, derived from a human renal cell carcinoma, lack functional pVHL and constitutively accumulate HIF-2α under normoxic conditions. These cells also lack detectable HIF-1α expression so that HIF-dependent regulation of target genes is attributable to HIF-2α isoform.

[3] = tested on: VEGF; assay: VEGF protein secretion by ELISA, 786-O cells; type: cell-based, human; details: about 18 hours, 0.00655-20 μM
Protocol: VEGF protein secretion was measured by ELISA following incubation of cultured 786-O cells for about eighteen (18) hours with Compund (1) (FIG. 19a) or with Compound (47) (FIG. 19b).

[4] = tested on: 786-0 cells; assay: Cell viability, ATP levels by Cell Titer Glo; type: cell-based, human; details: 24 hr, as much as 30 μM
Protocol: Assays were performed in triplicates and the error bars represent±SD.
as §2

[5] = target: GST-ARNT-PAS-B*-FLAG (Homo sapiens, UniProt P27540, E362R); assay: AlphaScreen control reaction with doubly tagged protein; type: biochemical; details: single doubly tagged protein
Description: Upon illumination with red (680 nm) light, donor beads will generate short-lived singlet oxygen (^1O2). Nearby (<200 nm) acceptor beads can react with ^1O2 to emit light at shorter wavelengths (top). Compounds that disrupt the complex correspondingly eliminate this signal (bottom). Compounds that non-specifically interfere with the AlphaScreen assay can be identified with a counterscreen in which the ARNT PAS-B* domain was simultaneously tagged with both the GST and FLAG tags. […] At these concentrations, protein binding to the acceptor beads has become saturated and free ARNT PAS-B* competes with the coated acceptor beads for the donor beads bound to HIF-2α PAS-B*. […] Assays were performed in triplicate and the error bars represent±SD.

[6] = tested on: PGK1; assay: PGK1 mRNA expression in Hep3B cells (HIF-1α marker); type: cell-based; details: 1 or 10 μM, hypoxic (1% O2) 6 or 12 hr
[7] = tested on: EPO; assay: EPO mRNA expression in Hep3B cells (HIF-2α marker); type: cell-based; details: 1 or 10 μM, hypoxic (1% O2) 6 or 12 hr
[8] = tested on: HIF-2α; assay: ChIP, HIF-2α DNA binding in cultured cells; type: cell-based, human; details: 10 μM, hypoxic conditions
Protocol: (§3) Chromatin immunoprecipation (ChIP) using antibodies raised against HIF-1α or HIF-2α was used to measure HIF DNA binding in cultured cells.
(§4) Proc Natl Acad Sci USA 106, 4260-4265 (2009) using the ChIP-IT Express Enzymatic Kit (Active Motif) according to the manufacturer's protocol. ChIP assays were carried out using normal mouse IgG (Santa Cruz Biotechnology), anti-HIF-2α mouse monoclonal antibody (Novus Biologicals), or anti-HIF-1α mouse monoclonal antibody (BD Biosciences). The precipitated genomic DNA was analyzed by qPCR using the primers for a human EPO enhancer amplicon ([…]; […]). The captured genomic DNA was measured by normalizing with that of input material and compared between sample.

[9] = target: HIF-2α PAS-B*/ARNT PAS-B* heterodimer (Homo sapiens, UniProt Q99814, R247E); assay: AlphaScreen, HIF-2α PAS-B*/ARNT PAS-B* heterodimerization;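 note: GST-tagged HIF-2α PAS-B* and FLAG-tagged ARNT PAS-B* with glutathione donor and anti-FLAG acceptor beads, luminescence after 680 nm excitation, loss of signal indicating disrupted heterodimer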
Description: (FIG. 8a) As shown in the cartoon schematic, interactions between GST-tagged HIF-2α (green) and FLAG-tagged ARNT (blue) PAS-B* domains recruit both donor beads (D), coated with glutathione, and acceptor beads (A), coated with anti-FLAG antibodies, to one another. Upon illumination with red (680 nm) light, donor beads will generate short-lived singlet oxygen (^1O2). Nearby (<200 nm) acceptor beads can react with ^1O2 to emit light at shorter wavelengths (top). Compounds that disrupt the complex correspondingly eliminate this signal (bottom). Compounds that non-specifically interfere with the AlphaScreen assay can be identified with a counterscreen in which the ARNT PAS-B* domain was simultaneously tagged with both the GST and FLAG tags. (FIG. 8b) The AlphaScreen signal (relative units; RU) reflecting protein-protein interactions between 25 (open triangles), 50 (open circles) or 100 (closed circles) nM HIF-2α PAS-B* increases with increasing concentrations of ARNT PAS-B*. At the highest ARNT PAS-B* concentrations, a decrease in signal reflects the hook effect. At these concentrations, protein binding to the acceptor beads has become saturated and free ARNT PAS-B* competes with the coated acceptor beads for the donor beads bound to HIF-2α PAS-B*. […] Assays were performed in triplicate and the error bars represent±SD.
Inhibition of heterodimerization of HIF-2α to HIF1β (ARNT) may be determined in an Amplified Luminescent Proximity Homogeneous Assay (AlphaScreen).
The AlphaScreen assay can be done according to the following procedures: • 1. Prepare cold binding buffer solution: 20 mM Tris-Cl (pH=7.5), 100 mM NaCl, 1 mM DTT, 0.02% Tween-20 (final concentration) and place on ice to keep temperature approximately 4° C. • 2. Prepare Protein Mix: To a 50 mL conical tube add 23 mL of cold buffer and 0.04 mL of both GST-HIF2α PASB* (100 μM) and ARNT-PASB*-Flag (100 μM). • 3. Distribute to 96 well plate: Add 60 μL of protein mix to each wells. • 4. Adding Compound: Dissolve compounds in DMSO to obtain a final concentration of 10 mM. Then create the appropriate dilutions for your particular compound in glass vials. Once all the dilutions are ready place 1 μL of compound in each well. • 5. Prepare Bead mix: In the dark room using green light only create a tube with 3.84 mL of cold buffer and 3 μL of GST Donor beads and Flag acceptor beads. • 6. Distribute Bead mix: Invert the tube a couple times before distributing 40 μL of mix to each well. • 7. Incubation: After adding beads wrap the plate in tin foil twice and remove the covered plate from dark room. Incubate the plate at room temperature while rocking gently for 4 hours. • 8. Read: After 4 hours place the uncovered plate in the plate reader. Make sure the room is relatively tree of white light when placing the plate in the machine. It is ok to have the green light on if needed. • 9. […] Flag acceptor beads should be aliquoted into small opaque tubes (20-50 μl per tube) upon arrival from the manufacturer. Place both sets of beads in 4° C. storage when not in use. • 11. Avoid expose beads to white light. • 12. Pipette beads up and down several times before adding to a tube of cold buffer solution. • 13. Amount of Beads used for Bead mix may vary from batch to batch.

[10] = target: T1, HIF-1α (Homo sapiens, UniProt Q16665); assay: ChIP, HIF-1α DNA binding in cultured cells; type: cell-based; details: 10 μM, hypoxic conditions
T1 construct: endogenous in cells
Protocol: as §3, §4

[11] = target: T2, full length HIF-2α and ARNT (Homo sapiens, UniProt Q99814); assay: Co-IP of HIF-2α with ARNT, nuclear extracts of hypoxic Hep3B cells; type: biochemical; details: increasing concentrations
T2 construct: heterodimerization between full length HIF-2α and ARNT polypeptides; endogenous in cells; host or cells: Hep3B (hypoxic), nuclear extracts
Protocol: An antibody recognizing the N-terminus of ARNT, was used to immunoprecipitate (IP) the endogenous ARNT protein from the nuclear extracts (FIG. 17 b; top panel).
Co-IP: Nuclear protein extraction and co-IP experiments were performed as reported in Semenza, G. L. Hypoxia-inducible factors: mediators of cancer progression and targets for cancer therapy. […] The following antibodies were used for immunoblot analysis: anti-HIF-1α mouse monoclonal antibody (BD Biosciences); anti-EPAS/HIF-2α mouse monoclonal antibody (Novus Biological); anti-ARNT/HIF-1β mouse monoclonal antibody (Novus Biological).

[12] = tested on: HIF-2α or HIF-1α mRNA; assay: HIF-1α and HIF-2α mRNA levels in Hep3B cells, RT-PCR; type: cell-based
[13] = tested on: HIF-2α; assay: HIF-2α expression in 786-0 cells (RT-PCR, immunoblot); type: cell-based, human; details: normoxic 786-0 cells
Description: as §2

[14] = target: T3, HIF-1 heterodimerization (Homo sapiens, UniProt Q16665); assay: Co-IP of HIF-1α with ARNT, nuclear extracts of hypoxic Hep3B cells; type: biochemical; details: increasing amounts
T3 construct: Nuclear extracts prepared from hypoxic Hep3B cells expressing ARNT, HIF-1α, and HIF-2α (input); endogenous in cells; host or cells: Hep3B (hypoxic), nuclear extracts
Description: as §1

Sequence of HIF-1α PAS-B (Q16665 238-349): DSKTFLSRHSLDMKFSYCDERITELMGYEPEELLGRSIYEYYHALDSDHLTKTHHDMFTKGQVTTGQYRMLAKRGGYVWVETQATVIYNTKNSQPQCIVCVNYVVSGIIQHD
Sequence of HIF-2α PAS-B*/ARNT PAS-B* heterodimer (Q99814 240-350 R247E, one chain of several): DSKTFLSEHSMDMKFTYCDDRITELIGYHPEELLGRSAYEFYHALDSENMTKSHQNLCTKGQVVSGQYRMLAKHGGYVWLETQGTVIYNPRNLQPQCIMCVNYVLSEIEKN
T2 sequence (Q99814 whole entry): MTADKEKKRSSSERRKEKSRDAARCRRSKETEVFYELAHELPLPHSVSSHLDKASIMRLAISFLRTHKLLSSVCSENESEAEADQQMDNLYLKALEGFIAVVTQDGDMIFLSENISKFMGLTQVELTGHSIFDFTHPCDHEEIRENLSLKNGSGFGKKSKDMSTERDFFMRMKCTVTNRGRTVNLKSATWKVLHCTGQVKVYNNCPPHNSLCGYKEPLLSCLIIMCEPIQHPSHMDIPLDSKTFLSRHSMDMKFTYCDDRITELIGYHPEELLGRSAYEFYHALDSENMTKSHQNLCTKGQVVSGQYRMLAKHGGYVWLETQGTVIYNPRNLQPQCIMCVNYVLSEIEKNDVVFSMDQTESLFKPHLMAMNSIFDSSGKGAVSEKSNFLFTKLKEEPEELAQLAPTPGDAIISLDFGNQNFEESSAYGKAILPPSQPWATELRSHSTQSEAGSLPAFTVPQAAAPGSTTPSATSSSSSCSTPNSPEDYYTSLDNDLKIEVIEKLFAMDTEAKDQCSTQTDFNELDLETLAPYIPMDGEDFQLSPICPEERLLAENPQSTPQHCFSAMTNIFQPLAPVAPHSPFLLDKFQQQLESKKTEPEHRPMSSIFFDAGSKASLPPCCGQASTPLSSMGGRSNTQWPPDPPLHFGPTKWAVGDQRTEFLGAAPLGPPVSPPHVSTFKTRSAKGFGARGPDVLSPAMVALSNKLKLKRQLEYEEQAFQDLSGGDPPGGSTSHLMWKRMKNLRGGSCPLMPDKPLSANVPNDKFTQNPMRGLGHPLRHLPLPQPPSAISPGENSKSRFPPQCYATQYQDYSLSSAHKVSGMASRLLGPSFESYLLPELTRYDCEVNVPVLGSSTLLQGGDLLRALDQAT
Sequence of GST-ARNT-PAS-B*-FLAG (P27540 355-470 E362R): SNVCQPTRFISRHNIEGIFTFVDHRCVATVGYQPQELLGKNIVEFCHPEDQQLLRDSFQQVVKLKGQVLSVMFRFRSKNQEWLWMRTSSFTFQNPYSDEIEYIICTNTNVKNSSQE
T1 sequence (Q16665 whole entry): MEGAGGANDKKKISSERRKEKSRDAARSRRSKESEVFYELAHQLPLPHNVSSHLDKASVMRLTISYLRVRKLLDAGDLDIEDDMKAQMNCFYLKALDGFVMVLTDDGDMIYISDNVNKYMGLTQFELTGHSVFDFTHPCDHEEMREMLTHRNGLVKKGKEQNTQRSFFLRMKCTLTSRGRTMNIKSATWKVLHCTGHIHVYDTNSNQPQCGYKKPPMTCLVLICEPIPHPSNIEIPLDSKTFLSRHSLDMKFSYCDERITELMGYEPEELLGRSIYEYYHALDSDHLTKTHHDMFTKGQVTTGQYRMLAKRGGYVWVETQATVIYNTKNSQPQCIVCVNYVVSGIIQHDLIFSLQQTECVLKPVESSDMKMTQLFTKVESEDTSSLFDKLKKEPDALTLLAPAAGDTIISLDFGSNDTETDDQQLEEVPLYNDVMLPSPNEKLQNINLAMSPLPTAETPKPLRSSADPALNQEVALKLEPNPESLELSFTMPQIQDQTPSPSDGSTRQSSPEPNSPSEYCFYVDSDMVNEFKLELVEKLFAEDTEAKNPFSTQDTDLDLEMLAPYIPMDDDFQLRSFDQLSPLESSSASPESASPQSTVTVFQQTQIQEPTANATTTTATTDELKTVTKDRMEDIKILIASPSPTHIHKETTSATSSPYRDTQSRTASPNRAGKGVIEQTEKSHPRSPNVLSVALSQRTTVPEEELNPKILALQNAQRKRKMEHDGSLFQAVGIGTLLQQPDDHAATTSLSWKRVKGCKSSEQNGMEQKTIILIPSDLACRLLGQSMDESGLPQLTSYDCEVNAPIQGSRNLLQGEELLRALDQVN
T1 sequence (P27540 2-789 partner limits assumed): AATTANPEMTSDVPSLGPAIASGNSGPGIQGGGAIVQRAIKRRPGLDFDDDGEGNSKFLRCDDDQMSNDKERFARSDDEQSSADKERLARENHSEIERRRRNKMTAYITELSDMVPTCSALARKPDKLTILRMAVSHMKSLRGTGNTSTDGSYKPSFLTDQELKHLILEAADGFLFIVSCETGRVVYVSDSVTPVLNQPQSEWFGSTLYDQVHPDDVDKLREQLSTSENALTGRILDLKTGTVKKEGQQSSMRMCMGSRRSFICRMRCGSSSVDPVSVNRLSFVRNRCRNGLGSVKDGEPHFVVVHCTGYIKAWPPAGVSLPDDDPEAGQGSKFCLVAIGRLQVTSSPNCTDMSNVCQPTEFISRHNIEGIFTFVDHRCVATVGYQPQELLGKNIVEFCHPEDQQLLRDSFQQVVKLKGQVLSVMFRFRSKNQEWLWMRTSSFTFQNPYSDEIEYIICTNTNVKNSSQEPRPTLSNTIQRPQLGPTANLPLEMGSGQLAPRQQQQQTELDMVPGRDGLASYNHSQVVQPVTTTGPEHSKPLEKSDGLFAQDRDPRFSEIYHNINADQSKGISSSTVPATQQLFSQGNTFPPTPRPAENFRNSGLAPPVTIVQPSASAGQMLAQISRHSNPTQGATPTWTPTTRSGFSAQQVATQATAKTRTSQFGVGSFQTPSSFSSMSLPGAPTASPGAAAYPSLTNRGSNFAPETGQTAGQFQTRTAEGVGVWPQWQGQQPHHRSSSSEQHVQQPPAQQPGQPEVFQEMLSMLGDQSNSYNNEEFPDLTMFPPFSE
T3 sequence (Q16665 whole entry): as the sequence (Q16665 whole entry) above
T3 sequence (P27540 2-789 partner limits assumed): as the sequence (P27540 2-789 partner limits assumed) above

O=[N+]([O-])c1c(Nc2cc(F)cc(Cl)c2)ccc2nonc12 [Compound 1, N-(3-chloro-5-fluorophenyl)-4-nitrobenzo[c][1,2,5]oxadiazol-5-amine]
ITC protein-ligand interaction, HIF-1α PAS-B [1]: effectively does not bind; also recorded: does not show detectable protein-ligand interaction
Kd [1]: > 5000 nM
Expression of HIF-2 target gene (VEGF) [2]: reduced in a dose-dependent manner; also recorded: antagonized
VEGF protein secretion [3]: reduce VEGF protein secretion in a dose-dependent manner
Toxicity to cultured cells (ATP levels as cell viability) [4]: No overt toxicity; also recorded: not overtly toxic
Effect on AlphaScreen signal of control reaction [5]: No effect
Expression of PGK1 [6]: no effect
Hypoxic induction of EPO mRNA [7]: antagonized
HIF-2α DNA-binding activity (ChIP) [8]: substantially decreased; also recorded: selectively disrupts
IC50 [9]: 100 nM
Effect on HIF-2α/ARNT PAS-B* heterodimerization in AlphaScreen ([9]; triplicate): blocks heterodimer assembly
HIF-1α DNA-binding activity (ChIP) [10]: unaffected
Heterodimerization of full length HIF-2 transcription factor (co-IP) [11]: disrupts heterodimerization
HIF-1α and -2α mRNA levels [12]: no effect
Effect on HIF-2α expression (mRNA, protein) [13]: does not alter; also recorded: no effect
Effect on HIF-1 heterodimerization by Co-IP [14]: little effect

Source: patent US9757379B2, “Inhibition of HIF-2α heterodimerization with HIF1β (ARNT)” (The Board of Regents of the University of Texas System, priority 2012, dated 2017)
